Consider 17 molecules from the supplement of paper PMC5579334.

Assay [1] concerns YST-1. Nature of the assay: drug sensitivity score (DSS, CellTiter-Glo viability, 72 h) (DSS (dimensionless)); higher = more sensitive; extreme values may be limits of the assay. A digest of the protocol: (§1)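 After seeding 750–1000 cells per well of MPNST cell lines or primary human Schwann cells into 384-well plates preprinted with each compound at five concentrations in 10-fold steps, plates were kept 72 h at 37 °C, 5% CO2. Viability was read as CellTiter-Glo ATP luminescence relative to vehicle and positive-control wells, with duplicates averaged where present. The data were fitted with four-parameter logistic models. Drug sensitivity score and relative IC50, censored at the top concentration, derive from the fits, and percent inhibition refers to the top concentration.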
On the technique in general: Cellular ATP, detected with luciferase, serves as a proxy for viable cell number.

For assay [2], the system named is HS-PSS. The description is as above. A digest of the protocol: as §1
Assay [3] relates to HS-Sch-2. The assay is described as above. In a few lines: as §1
Assay [4] has as its system HS-PSS. Nature of the assay: drug sensitivity score (DSS, CellTox-Green cytotoxicity, 72 h) (DSS (dimensionless)); higher = more cytotoxic; extreme values may be limits of the assay. A digest of the protocol: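 For 72 h at 37 °C, MPNST cell lines and primary human Schwann cells were exposed in 384-well plates to five 10-fold compound dilutions. CellTox-Green, added before seeding at a final 1:1000 dilution, gave fluorescence from DNA released by disrupted cells. Signals were scaled to vehicle and positive-control wells, cultures failing plate quality control were left out, and four-parameter logistic fits were applied. Relative IC50 and drug sensitivity score were derived from the fits, with IC50 censored at the top concentration.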

Assay [5] has as its system YST-1. In words: % inhibition of CellTiter-Glo viability at highest tested concentration (72 h), relative to DMSO and benzethonium chloride controls; higher = more inhibition. In a few lines: as §1
Assay [6] deals with HS-PSS. The assay is described as above. A digest of the protocol:
as §1

For assay [7], the system named is HS-Sch-2. The assay is described as above. A digest of the protocol:
as §1

Molecules are shown by their SMILES.

Usually % inhibition stands for the relative decrease from the control value, in per cent. With `COc1cc2nccc(Oc3ccc(NC(=O)NC4CC4)c(Cl)c3)c2cc1C(N)=O` [Lenvatinib] (max concentration tested 2500 nM), the drug sensitivity score in assay [1] is 0.83; in assay [2], 0; in assay [3] it was 0.06; in assay [4] it was 0. In addition, the “% inhibition” value in assay [5] was 18.1%; in assay [6], 5.51%; in assay [7], 15%.

As for `NC(=O)N1CCC(CC(=O)N2CCC([C@H]3c4ncc(Br)cc4CCc4cc(Cl)cc(Br)c43)CC2)CC1` [Lonafarnib] (max concentration tested 10000 nM), the drug sensitivity score in assay [1] is 5.95; in assay [2] it was 4.36; in assay [3], 4.95; in assay [4], 0. Also, the results for the “% inhibition” value in assay [5], in assay [6] and in assay [7] were 64.4%, 58% and 55.5%, respectively.

On to `Cc1c(F)cc(C(=O)NC2CC2)cc1-c1ccc(C(=O)NCC(C)(C)C)cn1` [Losmapimod] (max concentration tested 10000 nM), for which the drug sensitivity score in assay [1] is 10.1; in assay [2], 0; in assay [3] it was 0; in assay [4], 0. For the same molecule, the entries for the “% inhibition” value in assay [5], in assay [6] and in assay [7] were 32.3%, 8.01% and 1.17%, respectively.

Take `CC[C@H](C)C(=O)O[C@H]1C[C@@H](C)C=C2C=C[C@H](C)[C@H](CC[C@@H]3C[C@@H](O)CC(=O)O3)[C@H]21` [Lovastatin] (max concentration tested 10000 nM): the drug sensitivity score in assay [1], in assay [2], in assay [3] and in assay [4] was 0 in each case. The “% inhibition” value in assay [5] was 0.71%; in assay [6], -5.9%; in assay [7], -6.45%.

In the case of `CNC(=O)c1cccc2cc(Oc3ccnc4cc(OCC5(N)CC5)c(OC)cc34)ccc12` [Lucitanib] (max concentration tested 10000 nM), the drug sensitivity score in assay [1] worked out at 2.13; in assay [2], 1.71; in assay [3], 1.19; in assay [4], 0. The entries for the “% inhibition” value in assay [5], in assay [6] and in assay [7] were 26.4%, 23.4% and 31.9%, respectively.

For the molecule `CCNC(=O)c1noc(-c2cc(C(C)C)c(O)cc2O)c1-c1ccc(CN2CCOCC2)cc1` [Luminespib] (max concentration tested 1000 nM), the drug sensitivity score in assay [1] is 19.5; in assay [2] it was 14; in assay [3], 23.5; in assay [4], 3.7. Besides, the “% inhibition” value in assay [5] is 79.6%; in assay [6], 82.2%; in assay [7], 98.9%.

On to `CN(C[C@@H]1COCCO1)S(=O)(=O)Nc1ccc2ccc3ncc(-c4cnn(C)c4)cc3c(=O)c2c1` [MK-2461] (max concentration tested 10000 nM), for which the drug sensitivity score in assay [1] was 6.02; in assay [2] it was 0.69; in assay [3] it was 2.68; in assay [4], 0. The “% inhibition” value came to 67.3% in assay [5], 25.5% in assay [6] and 55.1% in assay [7].

As for `O=C(c1cccc(Cl)c1F)N1CCN(Cc2cccc(Nc3nccs3)n2)CC1` [MK-8745] (max concentration tested 2500 nM), the drug sensitivity score in assay [1] stood at 4.21; in assay [2], 0.32; in assay [3], 3.17; in assay [4], 0.89. Further, the “% inhibition” value in assay [5] came out at 36.5%; in assay [6] it was 17.5%; in assay [7] it was 48.5%.

On to `Cn1cc(-c2cnn3c(N)c(Br)c([C@@H]4CCCNC4)nc23)cn1` [MK-8776] (max concentration tested 2500 nM), for which the drug sensitivity score in assay [1] was 2.03; in assay [2] it was 0; in assay [3] it was 7.06; in assay [4], 0. Also, the “% inhibition” value in assay [5] is 29.6%; in assay [6] it was 7.73%; in assay [7] it was 72%.

As for `Cc1cnc(-c2ccccc2C(C)C)nc1NCc1ccc(-n2ccnn2)cc1` [ML323] (max concentration tested 10000 nM), the drug sensitivity score in assay [1] worked out at 0.66; in assay [2], 3.56; in assay [3] it was 3.67; in assay [4] it was 0. The “% inhibition” value in assay [5] was 18.2%; in assay [6], 42%; in assay [7] it was 39.9%.

For `O=C(O)c1ccc(Nc2ncc3c(n2)-c2ccc(Cl)cc2C(c2c(F)cccc2F)=NC3)cc1` [MLN-8054] (max concentration tested 10000 nM), the drug sensitivity score in assay [1] was found to be 6.64; in assay [2], 3.57; in assay [3] it was 6.25; in assay [4] it was 0. The “% inhibition” value worked out at 46.6% in assay [5], 36.4% in assay [6] and 60.3% in assay [7].

For `O=C(Nc1cccc(NC(=O)c2cccc(O)c2O)c1)c1cccc(O)c1O` [MST-312] (max concentration tested 10000 nM), the drug sensitivity score was determined as 5.45 in assay [1], 4.53 in assay [2], 10.8 in assay [3] and 0.02 in assay [4]. In addition, the “% inhibition” value in assay [5] worked out at 96.2%; in assay [6] it was 86.4%; in assay [7] it was 90.7%.

`CNC(=O)[C@@H](NC(=O)[C@H](CC(C)C)[C@H](O)C(=O)NO)C(C)(C)C` [Marimastat] (max concentration tested 10000 nM): the drug sensitivity score in assay [1] was 0; in assay [2], 0; in assay [3], 0.33; in assay [4] it was 0. In addition, the “% inhibition” value in assay [5] is 7.56%; in assay [6], -7.14%; in assay [7], 17.1%.

In the case of `CC(=O)O[C@]1(C(C)=O)CC[C@H]2[C@@H]3C=C(C)C4=CC(=O)CC[C@]4(C)[C@H]3CC[C@@]21C` [Megestrol acetate] (max concentration tested 10000 nM), the drug sensitivity score in assay [1], in assay [2], in assay [3] and in assay [4] was 0 each time. For the same molecule, the “% inhibition” value in assay [5] is 6.88%; in assay [6] it was -2.66%; in assay [7] it was 2.53%.

Take `N[C@@H](Cc1ccc(N(CCCl)CCCl)cc1)C(=O)O` [Melphalan] (max concentration tested 12500 nM): the drug sensitivity score in assay [1], in assay [2], in assay [3] and in assay [4] was 0 throughout. For the same molecule, the results for the “% inhibition” value in assay [5], in assay [6] and in assay [7] were 3.44%, 3.32% and 7.23%, respectively.

With `CCN(CC)CCCC(C)Nc1c2ccc(Cl)cc2nc2ccc(OC)cc12` (centres undefined) [Mepacrine] (max concentration tested 50000 nM), the drug sensitivity score in assay [1] is 17.3; in assay [2], 18.5; in assay [3], 18.5; in assay [4] it was 18. Moreover, the “% inhibition” value in assay [5], in assay [6] and in assay [7] was 101% in each case.

Take `Cc1ccc(C(=O)Nc2ccc(Oc3cc4cnn(C)c4cc3-c3cn[nH]c3)c(F)c2)c(=O)n1-c1ccc(F)cc1` [Merestinib] (max concentration tested 1000 nM): the drug sensitivity score is 1.74 in assay [1], 3.07 in assay [2], 1.13 in assay [3] and 0 in assay [4]. Besides, the “% inhibition” value in assay [5] was 25.2%; in assay [6], 46.7%; in assay [7], 31%.
